US6750228B1, “Aromatic sulfone hydroxamic acid metalloprotease inhibitor” (priority 1997, dated 2004)
Where two headings read alike, the source gives them in different places.

Assays:
Assay in all cases: biochemical
MMP-1 = biological target: T1, MMP-1 (Homo sapiens, UniProt P03956); conditions: read-out: MMP-1 IC50
T1 construct: made in house; host or cells: transfected HT-1080 cells (provided by Dr. Harold Welgus, Washington University)
T1 sequence (P03956 100-469): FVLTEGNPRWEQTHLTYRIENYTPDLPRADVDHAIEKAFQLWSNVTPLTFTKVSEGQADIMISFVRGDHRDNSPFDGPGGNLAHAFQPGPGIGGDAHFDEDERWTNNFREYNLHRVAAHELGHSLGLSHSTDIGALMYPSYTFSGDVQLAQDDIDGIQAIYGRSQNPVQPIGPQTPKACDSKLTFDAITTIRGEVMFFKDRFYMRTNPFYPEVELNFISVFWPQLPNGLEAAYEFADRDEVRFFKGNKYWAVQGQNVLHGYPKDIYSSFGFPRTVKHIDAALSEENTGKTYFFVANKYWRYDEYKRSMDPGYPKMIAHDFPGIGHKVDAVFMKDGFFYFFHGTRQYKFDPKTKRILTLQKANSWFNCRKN
Description: (§1) The compounds prepared in the manner described in the Examples above were assayed for activity by an in vitro assay. […] Briefly, 4-aminophenylmercuric acetate (APMA) or trypsin-activated MMPs were incubated with various concentrations of the inhibitor compound at room temperature for 5 minutes.
(§2) The expressed enzyme was purified first over a heparin agarose column and then over a chelating zinc chloride column. The proenzyme was activated by APMA for use in the assay.
(§3) MMP-1 expressed in transfected HT-1080 cells was provided by Dr. Harold Welgus of Washington University, St. Louis, Mo. The enzyme was also activated using APMA and was then purified over a hydroxamic acid column. Dr. Welgus also provided transfected HT-1080 cells that expressed MMP-9. Transfected cells that expressed MMP-2 were provided by Dr. Gregory Goldberg, also of Washington University. Studies with MMP-7 were carried out at pH 7.5 in the presence of 0.02% 2-mercaptoethanol using conditions otherwise similar to those used for the other enzymes. The enzyme was obtaind from a hMMP-7-expressing E. coli clone that was a gift of Dr. Steven Shapiro of Washington University, St. Louis, Mo. Further specifics for preparation and use of these enzymes can be found in the scientific literature describing these enzymes. See, for example, Enzyme Nomenclature, Academic Press, San Diego, Calif. […] The enzyme substrate is a methoxycoumarin-containing polypeptide having the following sequence:
(§4) MCA-ProLeuGlyLeuDpaAlaArgNH2, wherein MCA is methoxycoumarin and Dpa is 3-(2,4-dinitrophenyl)-L-2,3-diaminopropionyl alanine.
(§5) The buffer used for assays contained 100 mM Tris-HCl, 100 mM NaCl, 10 mM CaCl2 and 0.05 percent polyethyleneglycol (23) lauryl ether at a pH value of 7.5. Assays were carried out at room temperature, and dimethyl sulfoxide (DMSO) at a final concentration of 1 percent was used to dissolve inhibitor compound.
(§6) The assayed inhibitor compound in DMSO/buffer solution was compared to an equal amount of DMSO/buffer with no inhibitor as control using Microfluor White Plates (Dynatech). The inhibitor or control solution was maintained in the plate for 10 minutes and the substrate was added to provide a final concentration of 4 μM.
(§7) Inhibition was measured as a reduction in fluorescent intensity as a function of inhibitor concentration, using a Perkin Elmer L550 plate reader. The IC50 values were calculated from those values. The results are set forth in the Inhibition Table A, below, reported in terms of IC50 to three significant figures, where appropriate.

MMP-13 = biological target: T2, MMP-13 (Homo sapiens, UniProt P45452); conditions: recombinant human MMP-13, MCA peptide substrate 4 μM, pH 7.5, room temperature
T2 construct: made in house; host or cells: baculovirus / insect cells
Description: as §1, §2, §3, §4, §5, §6, §7

MMP-2 = biological target: T3, MMP-2 (Homo sapiens, UniProt P08253)
T3 construct: made in house; provided by Dr. Gregory Goldberg, Washington University
T3 sequence (P08253 110-660): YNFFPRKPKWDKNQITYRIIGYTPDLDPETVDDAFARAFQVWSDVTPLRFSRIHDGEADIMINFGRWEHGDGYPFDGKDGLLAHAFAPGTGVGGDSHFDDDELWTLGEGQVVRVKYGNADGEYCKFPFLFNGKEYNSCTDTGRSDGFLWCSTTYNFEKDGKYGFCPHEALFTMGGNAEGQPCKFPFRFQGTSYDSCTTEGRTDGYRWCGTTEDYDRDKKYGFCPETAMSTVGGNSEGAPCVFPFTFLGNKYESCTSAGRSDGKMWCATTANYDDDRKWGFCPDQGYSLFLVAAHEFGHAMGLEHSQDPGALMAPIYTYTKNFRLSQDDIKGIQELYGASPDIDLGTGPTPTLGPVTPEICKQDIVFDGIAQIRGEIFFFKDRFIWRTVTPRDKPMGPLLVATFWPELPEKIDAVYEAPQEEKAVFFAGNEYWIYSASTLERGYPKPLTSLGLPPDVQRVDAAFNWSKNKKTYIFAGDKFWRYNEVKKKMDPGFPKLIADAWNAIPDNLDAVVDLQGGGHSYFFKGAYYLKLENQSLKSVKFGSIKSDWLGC
Description: as §1, §2, §3, §4, §5, §6, §7

[1] = recombinant human MMP-1, MCA peptide substrate 4 μM, pH 7.5, room temperature
[2] = recombinant human MMP-2, MCA peptide substrate 4 μM, pH 7.5, room temperature, read-out: MMP-2 IC50

Row | SMILES | IC50 (MMP-1; [1]) [nM] | IC50 (MMP-13; read-out: MMP-13 IC50) [nM] | IC50 (MMP-2; [2]) [nM] | IC50 (MMP-1) [nM] | IC50 (MMP-13; MMP-13 IC50 (nM)) [nM] | IC50 (MMP-2; MMP-2 IC50 (nM)) [nM]
1 | CC(C)CN(C)C(=O)C1CCN(c2ccc(S(=O)(=O)C3(C(=O)NO)CCOCC3)cc2)CC1 [Example 58] | > 10000 | 22 | 4000 | – | – | –
2 | CC1CC(C)CN(C(=O)C2CCN(c3ccc(S(=O)(=O)C4(C(=O)NO)CCN(C(=O)CN(C)C)CC4)cc3)CC2)C1 (stereo not drawn) [Example 294] | > 1000 | 59.1 | > 10000 | – | – | –
3 | CCCN(CCCCC(=O)N1CCC(C(=O)NO)(S(=O)(=O)c2ccc(Oc3ccc(C(F)(F)F)cc3)cc2)CC1)CC1CC1 [Example 346] | > 10000 | 1.2 | 0.2 | – | – | –
4 | CC1CC(C)CN(C(=O)C2CCN(c3ccc(S(=O)(=O)C4(C(=O)NO)CCN(C(=O)CN5CCN(CCOCCO)CC5)CC4)cc3)CC2)C1 (stereo not drawn) [Example 299] | > 10000 | 30.6 | 9000 | – | – | –
5 | O=C(c1ccccc1)C1CCN(c2ccc(S(=O)(=O)C3(C(=O)NO)CCOCC3)cc2)CC1 [Example 656] | > 10000 | 3.1 | 120 | – | – | –
6 | O=C(NCc1ccccc1)N1CC(Oc2ccc(S(=O)(=O)C3(C(=O)NO)CCOCC3)cc2)C1 [Example 658] | > 10000 | 12.2 | 1000 | – | – | –
7 | CC1CC(C)CN(C(=O)C2CCN(c3ccc(S(=O)(=O)C4(C(=O)NO)CCN(C(=O)CN(CCCN(C)C)CCCN(C)C)CC4)cc3)CC2)C1 (stereo not drawn) [Example 302] | > 10000 | 175 | > 10000 | – | – | –
8 | CCCCC(=O)N1CCN(c2ccc(S(=O)(=O)C3(C(=O)NO)CCOCC3)cc2)CC1 [Example 591] | > 10000 | 70 | 730 | – | – | –
9 | CC1CC(C)CN(C(=O)C2CCN(c3ccc(S(=O)(=O)C4(C(=O)NO)CCN(C(=O)CN5CCN(C)CC5)CC4)cc3)CC2)C1 (stereo not drawn) [Example 288] | > 10000 | 35 | > 10000 | – | – | –
10 | O=C(C1CCN(c2ccc(S(=O)(=O)C3(C(=O)NO)CCOCC3)cc2)CC1)N1CCN(c2cnccn2)CC1 [Example 40] | – | – | – | > 10000 | 26.8 | 900
11 | O=C(Cc1ccccc1)C1CCN(c2ccc(S(=O)(=O)C3(C(=O)NO)CCOCC3)cc2)CC1 [Example 838] | > 10000 | 3 | 70 | – | – | –
12 | O=C(NO)C1(S(=O)(=O)c2ccc(N3CCC([S+]([O-])c4ccccc4)CC3)cc2)CCN(C2CC2)CC1 (stereo not drawn) [Example 459] | > 10000 | 136 | 3100 | – | – | –
13 | O=C(CCCCNCc1ccncc1)N1CCC(C(=O)NO)(S(=O)(=O)c2ccc(Oc3ccc(C(F)(F)F)cc3)cc2)CC1 [Example 340] | > 10000 | 0.3 | < 0.1 | – | – | –
14 | O=C(c1ccc(C(F)(F)F)cc1)C1CCN(c2ccc(S(=O)(=O)C3(C(=O)NO)CCOCC3)cc2)CC1 [Example 729] | > 10000 | 14.8 | 240 | – | – | –
15 | O=C(c1ccc2ccccc2c1)C1CCN(c2ccc(S(=O)(=O)C3(C(=O)NO)CCN(C4CC4)CC3)cc2)CC1 [Example 393] | > 10000 | 4.5 | 427 | – | – | –
16 | O=C(CCCCNCc1ccccn1)N1CCC(C(=O)NO)(S(=O)(=O)c2ccc(Oc3ccc(C(F)(F)F)cc3)cc2)CC1 [Example 336] | > 10000 | 1 | < 0.1 | – | – | –
17 | O=C(NO)C1(S(=O)(=O)c2ccc(N3CCC(c4ccccc4O)CC3)cc2)CCOCC1 [Example 825] | – | 11.3 | – | > 10000 | – | 70
18 | O=C(NO)C1(S(=O)(=O)c2ccc(N3CCC(c4ccccc4-c4ccc(F)cc4)CC3)cc2)CCOCC1 [Example 543] | > 10000 | – | 5400 | – | 33.7 | –
19 | COc1ccccc1COC1CCC(Oc2ccc(S(=O)(=O)C3(C(=O)NO)CCOCC3)cc2)C1 (stereo not drawn) [Example 740] | > 10000 | 61 | 175 | – | – | –
20 | CN1CCN(CCCCC(=O)N2CCC(C(=O)NO)(S(=O)(=O)c3ccc(Oc4ccc(C(F)(F)F)cc4)cc3)CC2)CC1 [Example 339] | > 10000 | 1 | 0.3 | – | – | –
21 | O=C(NO)C1(S(=O)(=O)c2ccc(N3CCc4ccccc4C3)cc2)CCOCC1 [Example 484] | > 10000 | 240 | 100 | – | – | –
22 | CN(CC1CC1)C(=O)C1CCN(c2ccc(S(=O)(=O)C3(C(=O)NO)CCSCC3)cc2)CC1 [Example 154] | > 10000 | 18 | 3700 | – | – | –

The next lines start with results.

Row | IC50 (MMP-1; [1]) [nM] | IC50 (MMP-13; read-out: MMP-13 IC50) [nM] | IC50 (MMP-2; [2]) [nM] | SMILES | IC50 (MMP-1) [nM] | IC50 (MMP-13; MMP-13 IC50 (nM)) [nM] | IC50 (MMP-2; MMP-2 IC50 (nM)) [nM]
23 | > 10000 | 2400 | > 10000 | CC(=O)c1ccc(OC2CCN(c3ccc(S(=O)(=O)C4(C(=O)NO)CCOCC4)cc3)CC2)c(Cl)c1 [Example 471] | – | – | –
24 | > 10000 | 14.8 | 271 | O=C(NC1CCN(c2ccc(S(=O)(=O)C3(C(=O)NO)CCOCC3)cc2)CC1)c1ccc(OC(F)(F)F)cc1 [Example 752] | – | – | –
25 | > 10000 | 9 | 40 | O=C(NO)C1(S(=O)(=O)c2ccc(N3CCN(c4ccccc4Cl)CC3)cc2)CCOCC1 [Example 88] | – | – | –
26 | > 10000 | 14 | 690 | O=C(Nc1ccncc1)C1CCN(c2ccc(S(=O)(=O)C3(C(=O)NO)CCOCC3)cc2)CC1 [Example 62] | – | – | –
27 | > 10000 | 20 | 2900 | O=C(Nc1ccccc1OC(F)(F)F)C1CCN(c2ccc(S(=O)(=O)C3(C(=O)NO)CCOCC3)cc2)CC1 [Example 63] | – | – | –
28 | > 10000 | 10 | 150 | O=C(NO)C1(S(=O)(=O)c2ccc(N3CC[C@@H](OCc4cccc(C(F)(F)F)c4)C3)cc2)CCOCC1 [Example 532] | – | – | –
29 | > 10000 | 10 | 540 | O=C(NO)C1(S(=O)(=O)c2ccc(N3CCC(C(O)c4ccccc4)CC3)cc2)CCOCC1 (stereo not drawn) [Example 827] | – | – | –
30 | > 10000 | 7.3 | 41.8 | N#Cc1ccc(S(=O)(=O)N2CCN(c3ccc(S(=O)(=O)C4(C(=O)NO)CCOCC4)cc3)CC2)cc1 [Example 690] | – | – | –
31 | 3400 | 6.7 | 330 | O=C(NO)C1(S(=O)(=O)c2ccc(N3CCC(OCc4cccc(OC(F)(F)F)c4)CC3)cc2)CCOCC1 [Example 173] | – | – | –
32 | > 10000 | 2.3 | 9 | O=C(NO)C1(S(=O)(=O)c2ccc(N3CCC(SCc4ccccc4)CC3)cc2)CCOCC1 [Example 707] | – | – | –
33 | > 10000 | 12.1 | 300 | N#Cc1cc(F)cc(OC2CCN(c3ccc(S(=O)(=O)C4(C(=O)NO)CCOCC4)cc3)CC2)c1 [Example 474] | – | – | –
